Measurements reported in US20240352029A1, “CDK Inhibitors And Their Use As Pharmaceuticals” (Prelude Therapeutics Incorporated, priority 2023, published 2024).

Experiments:
CDK4/Cyclin D1 = target: T1, CDK4/Cyclin D1 (Homo sapiens, UniProt P11802); test: CDK4/CyclinD1 enzymatic activity assay (TR-FRET); format: biochemical; conditions: ATP 2 mM final, read-out: CDK4_D1 IC50
T1 construct: purchased ProQinase; host or cells: insect cell
Protocol: CDK4/CyclinD1 Enzymatic Activity Assay
(§1) The inhibitory activity of compounds was evaluated in vitro using TR-FRET assay with white 384-well low volume microplate (Greiner Bio-One). CDK4/Cyclin D1 catalyzed phosphorylation of peptide in the presence and absence of compounds was measured and used in IC50 determination. Recombinant protein complex CDK4/Cyclin D1, expressed from insect cell, was purchased from ProQinase. Testing compounds were dissolved in DMSO at 1 mM and tested in 9-dose IC50 mode. The reaction mixture was prepared by mixing CDK4/CyclinD1 (1 nM final), ULight-4E-BP1 (100 nM final, Perkinelmer, TRF0128-D), and ATP (2 mM final) in assay buffer (20 mM of HEPES pH 7.4, 1 mM of EGTA, 0.05% BSA, 0.005% Tween 20, and 1 mM TCEP). The compound of interest in DMSO was added to each well in 3-fold serial dilution by dispenser (TECAN D300E) to make a 9.9 μL of reaction mixture. After 20 minutes preincubation at room temperature, 0.1 μL MgCl2 (10 mM final) was added to initiate the reaction. Following a 45 minutes incubation at 37° C., the reaction was stopped by addition of 2 μL of quenching buffer consisting of Lance detection buffer (Perkinelmer CR97-100C), LANCE Ultra Europium-anti-P-4E-BP1 (Perkinelmer, TRF0216-D), EDTA, and incubate at room temperature for additional 60 minutes in dark. The reaction signal was measured by Envision multimode plate reader (PerkinElmer, 2102-0010). IC50 values were determined by fitting the data to the standard 4 parameters with Hill Slope using GraphPad Prism software.

OVCAR3 p-RB = test: pRB ICW assay in OVCAR3 cells; format: cell-based; conditions: Homo sapiens, OVCAR-3, 2 hours incubation with compound
Protocol: pRB ICW Assay in OVCAR3 Cells
OVCAR3 cells were maintained in RPMI (Corning, Catalog #: 10-040-CV) supplemented with 10% v/v FBS (Gibco, Catalog #: 26140-079), 1% v/v Penicillin Streptomycin (Gibco, Catalog #15140-122.) OVCAR3 cells grown at log phase were trypsinized, counted, and resuspended in fresh medium to reach a final density of 6.7e4 cells/ml and 75 μL of culture were dispensed into a 384-well plate (Falcon, cat #353962) using Multidrop Combi dispenser (Thermo Scientific). The next day, compounds were dispensed as a 9-point, ½ log serial dilution using a Tecan digital dispenser (D300e), and cells were incubated with compound for 2 hours in a humidified incubator at 37° C. A reference compound at a final concentration of 10 μM was used as a control for maximum inhibition. Each compound was tested in duplicates in each experiment. At the end of the incubation, 25 μl of 16% paraformaldehyde (Electron Microscopy, cat #15710) was slowly added to each well and the plate was incubated at room temperature (RT) for 30 minutes to fix cells. Cells were then permeabilized by incubating with 50 μl/well of wash buffer (1×PBS with 0.1% Triton X-100) 5×5 minutes, followed by 1 hour blocking with 30 μl/well of Odyssey blocking buffer (Li—COR, cat #927-40000), all at RT. Anti-phosphor RB antibody (Cell signaling 8516S) was diluted 1:1000 in Odyssey blocking buffer and 20 μl was added to all wells and incubated overnight in 4° C. with gently rocking. The next day, cells were washed 5×5 min with 50 μl/well of wash buffer, followed with 1 hour incubation with secondary antibody and DRAQ5 diluted in Odyssey blocking buffer (1:500 dilution for secondary antibody and 1:2000 dilution for DRAQ5), 5×5 min washes, and one last wash with water. Plates were dried in 37° C. oven for 5 min and scanned using Li—COR Odyssey CLx imaging system to acquire intensities at 700 and 800 nm channels.

CDK2/Cyclin E2 = CDK2/Cyclin E2 (Homo sapiens, UniProt P24941); test: CDK2/CyclinE2 enzymatic activity assay (TR-FRET); format: biochemical; conditions: ATP 1 mM final, read-out: CDK2_E1 IC50
Protocol: CDK2/CyclinE2 Enzymatic Activity Assay
as §1, with “Bio-One). CDK2/Cyclin E2” for “Bio-One). CDK4/Cyclin D1”, “complex CDK2/Cyclin E2,” for “complex CDK4/Cyclin D1,”, “mixing CDK2/CyclinE2” for “mixing CDK4/CyclinD1”, “ULight-4E-BP1 (50” for “ULight-4E-BP1 (100”, “ATP (1” for “ATP (2”

T1 sequence (P11802 whole entry): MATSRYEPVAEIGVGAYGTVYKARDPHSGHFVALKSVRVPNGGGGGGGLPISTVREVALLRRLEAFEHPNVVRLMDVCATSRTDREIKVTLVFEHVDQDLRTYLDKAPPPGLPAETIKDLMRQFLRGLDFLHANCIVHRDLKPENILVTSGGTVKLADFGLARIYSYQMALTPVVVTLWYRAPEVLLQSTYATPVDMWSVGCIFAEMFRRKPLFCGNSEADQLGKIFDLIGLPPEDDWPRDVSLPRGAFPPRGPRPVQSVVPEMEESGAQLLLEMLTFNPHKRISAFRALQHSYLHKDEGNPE
T1 sequence (P24385 whole entry partner): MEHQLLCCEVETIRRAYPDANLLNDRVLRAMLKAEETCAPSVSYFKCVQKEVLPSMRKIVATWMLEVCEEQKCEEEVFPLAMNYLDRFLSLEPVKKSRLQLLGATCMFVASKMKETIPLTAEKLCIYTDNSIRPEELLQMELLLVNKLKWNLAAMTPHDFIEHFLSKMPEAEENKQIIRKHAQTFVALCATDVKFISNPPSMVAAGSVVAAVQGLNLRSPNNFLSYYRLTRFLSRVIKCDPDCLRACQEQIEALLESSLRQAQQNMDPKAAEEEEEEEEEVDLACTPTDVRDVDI

| SMILES | IC50 (CDK4/Cyclin D1) [nM] | IC50 (OVCAR3 p-RB) [nM] | IC50 (CDK2/Cyclin E2) [nM] |
| --- | --- | --- | --- |
| CC1(C)NC(=O)c2cc(-c3nc(N[C@H]4CCN(S(C)(=O)=O)C[C@H]4F)ncc3C(F)(F)F)sc21 [Example 14, 2-(2-(((3R,4S)-3-fluoro-1-(methylsulfonyl)piperidin-4-yl)amino)-5-(trifluoro-methyl)pyrimidin-4-yl)-6,6-dimethyl-5,6-dihydro-4H-thieno[2,3-c]pyrrol-4-one] | ≤ 100 | ≤ 100 | ≤ 100 |
| C[C@@H]1CN(S(C)(=O)=O)CC[C@@H]1Nc1ncc(C(F)(F)F)c(-c2cc3c(s2)CNC3=O)n1 [Example 18, 2-(2-(((3R,4S)-3-methyl-1-(methylsulfonyl)piperidin-4-yl)amino)-5-(trifluoro-methyl)pyrimidin-4-yl)-5,6-dihydro-4H-thieno[2,3-c]pyrrol-4-one] |  | 100 to 500 | ≤ 100 |
| Cn1cc(S(=O)(=O)N2CC[C@@H](Nc3ncc(C(F)(F)F)c(-c4cc5c(s4)C(C)(C)NC5=O)n3)[C@H](F)C2)cn1 [Example 16, 2-(2-(((3R,4R)-3-fluoro-1-((1-methyl-1H-pyrazol-4-yl)sulfonyl)piperidin-4-yl)amino)-5-(trifluoro-methyl)pyrimidin-4-yl)-6,6-dimethyl-5,6-dihydro-4H-thieno[2,3-c]pyrrol-4-one] | ≤ 100 | ≤ 100 | ≤ 100 |
| Cn1cc(S(=O)(=O)N2CCC(Nc3ncc(C(F)(F)F)c(-c4cc5c(s4)C(C)(C)NC5=O)n3)CC2)cn1 [Example 11, 6,6-dimethyl-2-(2-((1-((1-methyl-1H-pyrazol-4-yl)sulfonyl)piperidin-4-yl)amino)-5-(trifluoro-methyl)pyrimidin-4-yl)-5,6-dihydro-4H-thieno[2,3-c]pyrrol-4-one] | ≤ 100 | ≤ 100 | ≤ 100 |
| CS(=O)(=O)N1CCC(Nc2ncc(C(F)(F)F)c(-c3cc4c(s3)CNC4=O)n2)CC1 [Example 17, 2-(2-((1-(methylsulfonyl)piperidin-4-yl)amino)-5-(trifluoromethyl)pyrimidin-4-yl)-5,6-dihydro-4H-thieno[2,3-c]pyrrol-4-one] | ≤ 100 | ≤ 100 | ≤ 100 |
| CS(=O)(=O)N1CC[C@H](Nc2ncc(C(F)(F)F)c(-c3cc4c(s3)CNC4=O)n2)[C@H](F)C1 [Example 19, 2-(2-(((3R,4S)-3-fluoro-1-(methylsulfonyl)piperidin-4-yl)amino)-5-(trifluoro-methyl)pyrimidin-4-yl)-5,6-dihydro-4H-thieno[2,3-c]pyrrol-4-one] |  | ≤ 100 | ≤ 100 |
| CC1(C)NC(=O)c2cc(-c3nc(NC4CCN(S(C)(=O)=O)CC4)ncc3C(F)(F)F)sc21 [Example 12, 6,6-dimethyl-2-(2-((1-(methylsulfonyl)piperidin-4-yl)amino)-5-(trifluoro-methyl)pyrimidin-4-yl)-5,6-dihydro-4H-thieno[2,3-c] pyrrol-4-one] | ≤ 100 | ≤ 100 | ≤ 100 |
| Cc1c(-c2nc(NC3CCN(S(C)(=O)=O)CC3)ncc2F)sc2c1C(=O)NC2 [Example 4, 2-(5-fluoro-2-((1-(methylsulfonyl)piperidin-4-yl)amino)pyrimidin-4-yl)-3-methyl-5,6-dihydro-4H-thieno [2,3-c]pyrrol-4-one] |  | ≤ 100 | ≤ 100 |

Results, then the compound that gave them:

| IC50 (CDK4/Cyclin D1) [nM] | IC50 (OVCAR3 p-RB) [nM] | IC50 (CDK2/Cyclin E2) [nM] | SMILES |
| --- | --- | --- | --- |
| 100 to 500 | 100 to 500 | ≤ 100 | Cn1cc(S(=O)(=O)N2CCC(Nc3ncc(C(F)(F)F)c(-c4cc5c(s4)C(=O)NC5)n3)CC2)cn1 [Example 23, 2-(2-((1-((1-Methyl-1H-pyrazol-4-yl)sulfonyl)piperidin-4-yl)amino)-5-(trifluoromethyl)pyrimidin-4-yl)-4,5-dihydro-6H-thieno[2,3-c]pyrrol-6-one] |
| ≤ 100 | ≤ 100 | ≤ 100 | C[C@@H]1CN(S(=O)(=O)c2cn[nH]c2)CC[C@@H]1Nc1ncc(C(F)(F)F)c(-c2cc3c(s2)C(C)(C)NC3=O)n1 [Example 9, 2-(2-(((3R,4S)-1-((1H-pyrazol-4-yl)sulfonyl)-3-methylpiperidin-4-yl)amino)-5-(trifluoro-methyl)pyrimidin-4-yl)-6,6-dimethyl-5,6-dihydro-4H-thieno[2,3-c]pyrrol-4-one] |
| ≤ 100 | ≤ 100 | ≤ 100 | C[C@@H]1CN(S(=O)(=O)c2cn(C)cn2)CC[C@@H]1Nc1ncc(C(F)(F)F)c(-c2cc3c(s2)C(C)(C)NC3=O)n1 [Example 8, 6,6-dimethyl-2-(2-(((3R,4S)-3-methyl-1-((1-methyl-1H-imidazol-4-yl)sulfonyl)piperidin-4-yl)amino)-5-(trifluoromethyl)pyrimidin-4-yl)-5,6-dihydro-4H-thieno[2,3-c]pyrrol-4-one] |
| ≤ 100 | ≤ 100 | ≤ 100 | Cn1cc(S(=O)(=O)N2CCC(Nc3ncc(C(F)(F)F)c(-c4cc5c(s4)CNC5=O)n3)CC2)cn1 [Example 20, 2-(2-((1-((1-methyl-1H-pyrazol-4-yl)sulfonyl)piperidin-4-yl)amino)-5-(trifluoromethyl)pyrimidin-4-yl)-5,6-dihydro-4H-thieno[2,3-c]pyrrol-4-one] |
| ≤ 100 | ≤ 100 | ≤ 100 | C[C@@H]1CN(S(=O)(=O)c2cnn(C)c2)CC[C@@H]1Nc1ncc(C(F)(F)F)c(-c2cc3c(s2)C(C)(C)NC3=O)n1 [Example 7, 6,6-dimethyl-2-(2-(((3R,4S)-3-methyl-1-((1-methyl-1H-pyrazol-4-yl)sulfonyl)piperidin-4-yl)amino)-5-(trifluoromethyl)pyrimidin-4-yl)-5,6-dihydro-4H-thieno[2,3-c]pyrrol-4-one] |
|  | ≤ 100 | ≤ 100 | Cc1c(-c2nc(N[C@H]3CCN(S(C)(=O)=O)C[C@H]3C)ncc2F)sc2c1C(=O)NC2 [Example 5, 2-(5-Fluoro-2-(((3R,4S)-3-methyl-1-(methylsulfonyl)piperidin-4-yl)amino)pyrimidin-4-yl)-3-methyl-5,6-dihydro-4H-thieno[2,3-c]pyrrol-4-one] |
|  | ≤ 100 | ≤ 100 | O=C1NCc2sc(-c3nc(N[C@H]4CCN(S(=O)(=O)c5cn[nH]c5)C[C@H]4F)ncc3C(F)(F)F)cc21 [Example 22, 2-(2-(((3R,4S)-1-((1H-pyrazol-4-yl)sulfonyl)-3-fluoropiperidin-4-yl)amino)-5-(trifluoromethyl)pyrimidin-4-yl)-5,6-dihydro-4H-thieno[2,3-c]pyrrol-4-one] |
